Structures can show the parent of a compound that is named as a salt.
Assays:
[1] = Thermal polymorphic stability (heating of the crystalline form); type: physicochemical; settings: heated up to 200° C.
Source text: As discussed above, Nilotinib L-tartrate Form IV has advantageous properties.

[2] = Polymorphic stability on exposure to ethanol or methanol vapors; type: physicochemical; settings: exposed to ethanol or methanol vapors, about RT, about 1 hour to about 24 hours
Source text: As discussed above, Nilotinib HBr form XI has advantageous properties. In particular, the crystalline Nilotinib HBr form XI of the present invention is polymorphically stable. […] This stability is an advantage for the production, storage and processing of pharmaceuticals comprising Nilotinib HBr.

Compound	thermal polymorphic stability (conversion to other forms) [1]	polymorphic stability (conversion to other forms of Nilotinib HBr) [2]
Nilotinib L-tartrate [Nilotinib L-tartrate Form IV]	does not convert to other forms	–
Cc1cn(-c2cc(NC(=O)c3ccc(C)c(Nc4nccc(-c5cccnc5)n4)c3)cc(C(F)(F)F)c2)cn1 [Nilotinib HBr form XI, Nilotinib hydrobromide]	–	does not convert to other forms of Nilotinib HBr
